Experiments:
[1] = system: A375 cells and/or Saos-2 cells; assay: xCELLigence impedance assay, thawed NYESO-TCR-NK cells; conditions: pre-cryopreservation treatment at 1 micromolar; E:T 2:1; vs no pre-treatment
Procedure: As shown in FIGS. 17A-17C, addition of various tyrosine kinase inhibitors prior to freezing enhanced the antitumor cytotoxicity of TCR-NK cells post-thaw against solid cancer, as determined by xCELLigence impedance assays. The melanoma cell line (A375) (FIG. 17A) and osteosarcoma cell line (Saos-2) (FIG. 17B), were grown in 96 well RTCA E-Plates overnight. The next day, frozen NYESO targeting TCR-NK cells that were not treated or were treated pre-cryopreservation with a tyrosine kinase inhibitor (Dasatinib, Bosutinib, Nilotinib, or Saracatinib; at a final concentration of 1 micromolar) were thawed and added at 2:1 effector to target (E:T) ratio. The cancer cell growth was measured continuously over time (X axis) by the xCELLigence device and represented as normalized cell index (Y axis).

[2] = system: SKOV3 cells and/or UMRC3 cells; assay: xCELLigence impedance assay, thawed iC9/CD27 CAR/IL-15-NK cells; assay type: cell-based; conditions: pre-cryopreservation treatment at 1 micromolar; E:T 2:1; vs no pre-treatment
Procedure: The ovarian cancer cell line (SKOV3) (FIG. 16A) and renal cell carcinoma cell line (UMRC3) (FIG. 16B), were grown in 96 well RTCA E-Plates overnight.

[3] = system: CAR-NK cells; assay: Post-thaw CAR expression of CAR-NK cells by flow cytometry; assay type: cell-based, human
Procedure: (§1) CAR-NK cells were isolated, pre-activated, expanded, and treated with Dasatinib for 24, 48, or 72 hours prior to cryopreservation as described in Example 1 (or not treated with Dasatinib as control). Immediately prior to cryopreservation, CAR-NK cells were washed to remove the deactivating agent.

[4] = system: CAR-NK cells; assay: Post-thaw viability of CAR-NK cells by flow cytometry (Annexin V / cell death marker); assay type: cell-based, human
Procedure: as §1

[5] = system: U266 cells; assay: Chromium release assay, thawed NYESO-TCR-NK cells; assay type: cell-based; conditions: pre-cryopreservation treatment; E:T 2:1, 1:1, 0.5:1, 0.25:1; vs no pre-treatment
Procedure: After four hours, chromium release was measured, which corresponded to cancer cell death.

[6] = 24 h treatment prior to cryopreservation
[7] = 48 h treatment prior to cryopreservation

SMILES	cytotoxicity of thawed TCR-NK cells (normalized cell index) [1]	cytotoxicity of thawed CAR-NK cells (normalized cell index) [2]	CAR Mean Fluorescence Intensity (MFI) [3, 6]	percentage of cells that are CAR positive [3, 6]	CAR Mean Fluorescence Intensity (MFI) [3, 7]	percentage of cells that are CAR positive [3, 7]	living cell percentage [4, 6]	living cell percentage [4, 7]	living cell percentage ([4]; 72 h treatment prior to cryopreservation)	cytotoxicity of thawed TCR-NK cells (chromium release after four hours) [5]
COc1cc(Nc2c(C#N)cnc3cc(OCCCN4CCN(C)CC4)c(OC)cc23)c(Cl)cc1Cl [Bosutinib]	increased cytotoxicity	–	–	–	–	–	–	–	–	–
CN1CCN(CCOc2cc(OC3CCOCC3)c3c(Nc4c(Cl)ccc5c4OCO5)ncnc3c2)CC1 [Saracatinib]	–	increased cytotoxicity	–	–	–	–	–	–	–	–
Cc1nc(Nc2ncc(C(=O)Nc3c(C)cccc3Cl)s2)cc(N2CCN(CCO)CC2)n1 [Dasatinib]	increased cytotoxicity	increased cytotoxicity	7987	64.9%	4620	55.4%	61.7%	68.8%	70.9%	increased cytotoxicity
Cc1cn(-c2cc(NC(=O)c3ccc(C)c(Nc4nccc(-c5cccnc5)n4)c3)cc(C(F)(F)F)c2)cn1 [Nilotinib]	increased cytotoxicity	increased cytotoxicity	–	–	–	–	–	–	–	–
